These results are taken from ChEMBL document CHEMBL1201862, “PubChem BioAssay data set” (2004).

Some test systems named below: SN12C; SF-539; SF-268; A549; OVCAR-3; ACHN; TK-10; SNB-75; K562; M14; HL-60; Hs-578T; SR; HCT-116; RXF 393; SK-OV-3; SK-MEL-2; A498; HOP-92.
Holding throughout (experiment): NCI-60 cell line screen, 48 h

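Growth conditions: 96-well plates. Treatment: test compound, 48 hours, 5 concentrations. Analysis: linear interpolation between bracketing concentrations; unreached endpoints set to highest concentration. Abbreviation: GI50, concentration required for 50% inhibition of growth.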 Calls of active or inactive are those of the source. No stated cut-off is given here; in the data, active = GI50 up to about 1.1 µM and inactive = higher.

With `CCOC(=O)c1ccc(Nc2nc3ccc(C(F)(F)F)cc3nc2-c2ccccc2)cc1`, the GI50 was 74.8 µM (inactive) with SN12C; > 100 µM (inactive) with SF-539; > 100 µM (inactive) in the test on SF-268; > 100 µM (inactive) in the test on A549; > 100 µM (inactive) in the test with OVCAR-3; > 100 µM (inactive) in the test on ACHN. The GI50 in the test with TK-10 is > 100 µM (inactive); with SNB-75, 41.3 µM (inactive); with K562 it was > 100 µM (inactive); in the test with M14, > 100 µM (inactive); in the test with HL-60, 61.1 µM (inactive); in the test on Hs-578T it was 60.5 µM (inactive). Further, the GI50 was > 100 µM (inactive) in the test on SR, 84.9 µM (inactive) in the test with HCT-116 and 97.3 µM (inactive) in the test on RXF 393.
Turning to `COC(=O)C1(C)NCCc2c1[nH]c1ccccc21` (stereo not drawn), the GI50 in the test with SN12C, in the test with SF-539, in the test on SF-268, with A549, in the test with OVCAR-3 and in the test with TK-10 was > 100 µM (inactive) each time. The GI50 in the test with SK-OV-3 was > 100 µM (inactive); in the test with SK-MEL-2 it was > 100 µM (inactive); in the test on SNB-75 it was 16.8 µM (inactive); with K562 it was > 100 µM (inactive); in the test with M14, > 100 µM (inactive); in the test on A498, > 100 µM (inactive). Also, the GI50 in the test on HL-60 was > 10 µM (inactive); in the test with HOP-92, > 100 µM (inactive); in the test on SR, > 100 µM (inactive); with HCT-116, > 100 µM (inactive); in the test on RXF 393, > 100 µM (inactive).
`C=C1CCC(OC(C)=O)C2(C)C(OC(C)=O)CC3OC3(C)C2C(OC(C)=O)C2C(C)C(=O)OC2C1Cl` (stereo not drawn): the GI50 in the test with SN12C, in the test on SF-539, in the test with SF-268, in the test with A549, in the test on OVCAR-3 and in the test with ACHN was > 100 µM (inactive) each time. The GI50 with TK-10, with SK-OV-3, with SK-MEL-2, with SNB-75, with K562 and in the test with M14 was > 100 µM (inactive) each time. In addition, the GI50 with A498, in the test on HL-60, in the test with HOP-92, in the test with SR, with HCT-116 and in the test with RXF 393 was > 100 µM (inactive) in each case.
On to `COc1ccc2nc3cc(Cl)ccc3c(NC(C)CCCN(CCCl)CCCl)c2c1` (stereo not drawn), for which the GI50 was 0.269 µM (active) with SN12C; 0.55 µM (active) with SF-539; 0.273 µM (active) in the test with SF-268; 0.474 µM (active) with A549; 0.853 µM (active) in the test with OVCAR-3; 0.161 µM (active) in the test with ACHN. For the same compound, the GI50 in the test on TK-10 was 1.3 µM (inactive); in the test with SK-OV-3, 0.83 µM (active); in the test on SK-MEL-2 it was 1.1 µM (active); in the test on SNB-75, 1.42 µM (inactive); in the test on K562, 0.262 µM (active); in the test on M14, 0.809 µM (active). Further, the GI50 was 3.12 µM (inactive) in the test on A498; 0.12 µM (active) with HL-60; 0.569 µM (active) with HOP-92; 0.0463 µM (active) in the test with SR; 0.199 µM (active) in the test with HCT-116; 1.04 µM (active) in the test on RXF 393.
On to `COc1ccc(C(=O)C(C(=O)CC(=O)Nc2cccc(C(F)(F)F)c2)c2ccc(OC)cc2)cc1` (stereo not drawn), for which the GI50 in the test with SN12C, in the test with SF-539, in the test with SF-268, in the test with A549, with OVCAR-3 and with ACHN was > 100 µM (inactive) throughout. The GI50 with SK-OV-3 is > 100 µM (inactive); with SK-MEL-2, > 100 µM (inactive); in the test on SNB-75, 30.8 µM (inactive); in the test on K562, > 100 µM (inactive); in the test with M14 it was > 100 µM (inactive); in the test with A498, > 100 µM (inactive). Moreover, the GI50 was > 100 µM (inactive) in the test with HL-60; > 100 µM (inactive) in the test with HOP-92; > 100 µM (inactive) in the test with SR; > 100 µM (inactive) in the test on HCT-116; 78.9 µM (inactive) in the test on RXF 393.
As to `C[n+]1c2ccccc2c(CNC(CS)C(=O)O)c2ccccc21` (stereo not drawn), the GI50 in the test with SN12C is 30.5 µM (inactive); in the test on SF-539, 18.4 µM (inactive); in the test with SF-268, 20.4 µM (inactive); in the test on A549, 30.3 µM (inactive); in the test with OVCAR-3 it was 24.4 µM (inactive); with ACHN, 27.2 µM (inactive). Besides, the GI50 in the test with TK-10 is 39.1 µM (inactive); in the test on SK-OV-3 it was 23.1 µM (inactive); in the test on SK-MEL-2 it was 26.8 µM (inactive); in the test on SNB-75, 21.7 µM (inactive); in the test with K562 it was 31.8 µM (inactive); in the test with M14 it was 38.9 µM (inactive). In addition, the GI50 with A498 was 17.2 µM (inactive); in the test on HL-60, 17.3 µM (inactive); in the test on HOP-92, 18.7 µM (inactive); in the test on SR it was 12.7 µM (inactive); with HCT-116, 17.5 µM (inactive); in the test with RXF 393, 24.1 µM (inactive).
On to `Nc1ncnc2c1ncn2C1OC(COC2C(CO)OC(OC(C(=O)O)C(O)C(OP(=O)(O)O)C(O)C(=O)O)C(O)C2O)C(O)C1O` (stereo not drawn), for which the GI50 in the test on SF-539 was 90.2 µM (inactive); in the test with SF-268, > 100 µM (inactive); with A549 it was > 100 µM (inactive); in the test on OVCAR-3 it was > 100 µM (inactive); in the test on ACHN, 37.7 µM (inactive); in the test with TK-10, > 100 µM (inactive). Moreover, the GI50 in the test with SK-OV-3, in the test on SK-MEL-2, in the test on SNB-75, in the test with K562, in the test with M14 and with A498 was > 100 µM (inactive) in each case. The GI50 is > 100 µM (inactive) in the test with HL-60, 14.9 µM (inactive) in the test on Hs-578T, 15.7 µM (inactive) with SR and > 100 µM (inactive) in the test with HCT-116.
As for `C[S+]=c1sc2ccccc2s1`, the GI50 with SN12C, with SF-539, in the test on SF-268, with A549, in the test on ACHN and with TK-10 was > 100 µM (inactive) throughout. For the same compound, the GI50 with SK-OV-3, in the test with SK-MEL-2, in the test with SNB-75, in the test with K562, in the test on M14 and with A498 was > 100 µM (inactive) each time. In addition, the GI50 in the test on HL-60, in the test with HOP-92, in the test on SR, in the test with HCT-116 and in the test with RXF 393 was > 100 µM (inactive) throughout.
Turning to `Nc1cccc(C(=O)/C=C/c2ccccc2O)c1`, the GI50 with SN12C, in the test on SF-539, in the test on SF-268, in the test with A549, in the test with OVCAR-3 and in the test with ACHN was > 100 µM (inactive) each time. In addition, the GI50 in the test with TK-10 was > 100 µM (inactive); with SK-OV-3, > 100 µM (inactive); in the test on SK-MEL-2, > 100 µM (inactive); in the test on SNB-75, 13.2 µM (inactive); with K562, 32.9 µM (inactive); with M14 it was > 100 µM (inactive). The GI50 with A498 was > 100 µM (inactive); in the test with HL-60, 20.7 µM (inactive); with HOP-92 it was > 100 µM (inactive); in the test on SR, 44.7 µM (inactive); in the test with HCT-116, > 100 µM (inactive); with RXF 393, 85.5 µM (inactive).
For `C[C@]12CCC(=O)C(OC(=O)c3ccc([N+](=O)[O-])cc3)=C1CCC2=O`, the GI50 in the test on SN12C, in the test with SF-539, in the test with SF-268, with A549, in the test on OVCAR-3 and with ACHN was > 100 µM (inactive) in each case. Besides, the GI50 in the test with TK-10, with SK-OV-3, in the test on SNB-75, in the test with M14, with A498 and with HL-60 was > 100 µM (inactive) each time. Further, the GI50 with HOP-92, in the test on SR, in the test with HCT-116 and in the test with RXF 393 was > 100 µM (inactive) each time.
On to `COC(=O)CCC(NC(=S)N/N=C(\C)c1cnccn1)C(=O)OC` (stereo not drawn), for which the GI50 in the test with SN12C was 86.7 µM (inactive); with SF-539, 62.5 µM (inactive); in the test on SF-268, 35.4 µM (inactive); in the test with A549, 58.7 µM (inactive); in the test with OVCAR-3, 34.5 µM (inactive); in the test on ACHN, 29.8 µM (inactive). Also, the GI50 is > 100 µM (inactive) with TK-10; > 100 µM (inactive) with SK-OV-3; 68.1 µM (inactive) in the test with SK-MEL-2; 85.3 µM (inactive) in the test on SNB-75; 22.9 µM (inactive) with K562; 42.4 µM (inactive) with M14. The GI50 with A498 was > 100 µM (inactive); in the test with HL-60, 14.8 µM (inactive); in the test with HOP-92 it was > 100 µM (inactive); in the test on SR, 29.2 µM (inactive); in the test with HCT-116, 33.9 µM (inactive); in the test on RXF 393 it was > 100 µM (inactive).
